Measurements from the NIST ThermoML archive (doi:10.1021/acs.jced.7b00106).

Settings: Hot wire method

FC(F)(F)/C=C/Cl [(E)-1-chloro-3,3,3-trifluoroprop-1-ene]
Settings	thermal conductivity [W/m/K]
302.53 K, 136 kPa, Gas	0.01102
302.53 K, 16444 kPa, Liquid	0.0897
302.53 K, 47194 kPa, Liquid	0.1006
302.55 K, 122 kPa, Gas	0.01105
302.55 K, 36223 kPa, Liquid	0.09702
302.57 K, 8074 kPa, Liquid	0.08557
302.59 K, 25791 kPa, Liquid	0.09335
302.6 K, 16014 kPa, Liquid	0.08919
302.61 K, 11882 kPa, Liquid	0.08715
302.61 K, 30546 kPa, Liquid	0.0947
302.62 K, 142 kPa, Gas	0.01123
302.62 K, 7818 kPa, Liquid	0.08552
302.64 K, 122 kPa, Gas	0.01131
302.64 K, 131 kPa, Gas	0.01128
302.64 K, 139 kPa, Gas	0.01119
302.65 K, 7853 kPa, Liquid	0.08571
302.65 K, 25491 kPa, Liquid	0.09284
302.66 K, 20510 kPa, Liquid	0.09077
302.68 K, 16449 kPa, Liquid	0.08922
302.7 K, 373 kPa, Liquid	0.08122
302.72 K, 4080 kPa, Liquid	0.08356
302.72 K, 8075 kPa, Liquid	0.08531
302.75 K, 11886 kPa, Liquid	0.08659
302.75 K, 16005 kPa, Liquid	0.08846
302.75 K, 62930 kPa, Liquid	0.106
302.76 K, 303 kPa, Liquid	0.08187
302.76 K, 65463 kPa, Liquid	0.1068
302.78 K, 7822 kPa, Liquid	0.08491
302.79 K, 56432 kPa, Liquid	0.1045
302.81 K, 7852 kPa, Liquid	0.08507
302.82 K, 48051 kPa, Liquid	0.1011
302.83 K, 48410 kPa, Liquid	0.1013
302.85 K, 131 kPa, Gas	0.0108
302.85 K, 136 kPa, Gas	0.01096
302.86 K, 122 kPa, Gas	0.011
302.87 K, 381 kPa, Liquid	0.08077
302.88 K, 4074 kPa, Liquid	0.08317
302.91 K, 62949 kPa, Liquid	0.1057
302.92 K, 299 kPa, Liquid	0.08155
302.92 K, 36387 kPa, Liquid	0.09706
302.92 K, 65445 kPa, Liquid	0.1067
302.93 K, 41986 kPa, Liquid	0.09906
302.93 K, 47187 kPa, Liquid	0.1008
302.95 K, 36224 kPa, Liquid	0.09698
302.95 K, 56429 kPa, Liquid	0.1038
302.98 K, 48055 kPa, Liquid	0.1009
303 K, 48417 kPa, Liquid	0.101
303.02 K, 25798 kPa, Liquid	0.09309
303.03 K, 30542 kPa, Liquid	0.09496
303.04 K, 142 kPa, Gas	0.01123
303.06 K, 137 kPa, Gas	0.01133
303.07 K, 121 kPa, Gas	0.01128
303.07 K, 131 kPa, Gas	0.01133
303.08 K, 25486 kPa, Liquid	0.09308
303.09 K, 20509 kPa, Liquid	0.09124
303.09 K, 41994 kPa, Liquid	0.09863
303.09 K, 47182 kPa, Liquid	0.1005
303.12 K, 16450 kPa, Liquid	0.08937
303.12 K, 36213 kPa, Liquid	0.09661
303.17 K, 135 kPa, Gas	0.01096
303.18 K, 122 kPa, Gas	0.01101
303.18 K, 132 kPa, Gas	0.0107
303.18 K, 8071 kPa, Liquid	0.0855
303.2 K, 16008 kPa, Liquid	0.08894
303.2 K, 25794 kPa, Liquid	0.0928
303.21 K, 11886 kPa, Liquid	0.08665
303.21 K, 30558 kPa, Liquid	0.09462
303.24 K, 7824 kPa, Liquid	0.08506
303.25 K, 25489 kPa, Liquid	0.09272
303.27 K, 20510 kPa, Liquid	0.09093
303.28 K, 7854 kPa, Liquid	0.08529
303.31 K, 16446 kPa, Liquid	0.08918
303.31 K, 62940 kPa, Liquid	0.1059
303.32 K, 65424 kPa, Liquid	0.1066
303.34 K, 383 kPa, Liquid	0.08114
303.35 K, 4071 kPa, Liquid	0.08347
303.36 K, 56409 kPa, Liquid	0.1043
303.38 K, 8070 kPa, Liquid	0.08486
303.38 K, 16014 kPa, Liquid	0.08858
303.39 K, 11885 kPa, Liquid	0.08675
303.4 K, 295 kPa, Liquid	0.08173
303.4 K, 48041 kPa, Liquid	0.1012
303.42 K, 48413 kPa, Liquid	0.1013
303.44 K, 7814 kPa, Liquid	0.0847
303.47 K, 7846 kPa, Liquid	0.0848
303.5 K, 136 kPa, Gas	0.01133
303.5 K, 62957 kPa, Liquid	0.1058
303.5 K, 65425 kPa, Liquid	0.1067
303.51 K, 132 kPa, Gas	0.01137
303.51 K, 41983 kPa, Liquid	0.09892
303.51 K, 47179 kPa, Liquid	0.1008
303.53 K, 122 kPa, Gas	0.01133
303.54 K, 4064 kPa, Liquid	0.08281
303.54 K, 56404 kPa, Liquid	0.1037
303.56 K, 36213 kPa, Liquid	0.09672
303.59 K, 293 kPa, Liquid	0.08112
303.6 K, 48039 kPa, Liquid	0.101
303.61 K, 48415 kPa, Liquid	0.101
303.71 K, 41980 kPa, Liquid	0.09862
303.71 K, 47178 kPa, Liquid	0.1004
303.76 K, 36210 kPa, Liquid	0.09644
303.97 K, 136 kPa, Gas	0.01134
304 K, 121 kPa, Gas	0.01134
304.01 K, 131 kPa, Gas	0.01133
304.5 K, 135 kPa, Gas	0.01137
304.51 K, 122 kPa, Gas	0.01139
304.53 K, 130 kPa, Gas	0.01127
305.03 K, 135 kPa, Gas	0.0114
305.05 K, 121 kPa, Gas	0.0114
305.16 K, 131 kPa, Gas	0.01092
305.6 K, 134 kPa, Gas	0.01142
305.62 K, 122 kPa, Gas	0.01143
305.74 K, 132 kPa, Gas	0.01105
311.53 K, 157 kPa, Gas	0.01177
311.84 K, 158 kPa, Gas	0.01185
311.93 K, 134 kPa, Gas	0.01187
312.17 K, 165 kPa, Gas	0.01181
312.19 K, 159 kPa, Gas	0.01198
312.22 K, 98 kPa, Gas	0.012
312.23 K, 134 kPa, Gas	0.01169
312.26 K, 135 kPa, Gas	0.01202
312.37 K, 191 kPa, Gas	0.012
312.46 K, 165 kPa, Gas	0.01175
312.5 K, 133 kPa, Gas	0.0117
312.53 K, 160 kPa, Gas	0.01191
312.56 K, 98 kPa, Gas	0.01197
312.64 K, 135 kPa, Gas	0.01197
312.67 K, 191 kPa, Gas	0.01194
312.76 K, 166 kPa, Gas	0.01173
312.79 K, 131 kPa, Gas	0.01152
312.81 K, 96 kPa, Gas	0.01168
312.82 K, 133 kPa, Gas	0.01159
312.93 K, 97 kPa, Gas	0.01203
312.94 K, 162 kPa, Gas	0.01192
312.97 K, 190 kPa, Gas	0.01196
313.06 K, 134 kPa, Gas	0.01201
313.06 K, 195 kPa, Gas	0.01197
313.07 K, 167 kPa, Gas	0.01173
313.11 K, 96 kPa, Gas	0.0116
313.11 K, 130 kPa, Gas	0.0115
313.15 K, 132 kPa, Gas	0.01155
313.31 K, 97 kPa, Gas	0.01207
313.35 K, 195 kPa, Gas	0.01196
313.36 K, 163 kPa, Gas	0.01197
313.42 K, 96 kPa, Gas	0.01157
